pEC50: −log10 of the molar value.
Target: T1, mGLP-1R (Mus musculus, UniProt O35659)
T1 construct: expressed in transfected cells; host or cells: HEK293
T1 sequence (O35659 22-463): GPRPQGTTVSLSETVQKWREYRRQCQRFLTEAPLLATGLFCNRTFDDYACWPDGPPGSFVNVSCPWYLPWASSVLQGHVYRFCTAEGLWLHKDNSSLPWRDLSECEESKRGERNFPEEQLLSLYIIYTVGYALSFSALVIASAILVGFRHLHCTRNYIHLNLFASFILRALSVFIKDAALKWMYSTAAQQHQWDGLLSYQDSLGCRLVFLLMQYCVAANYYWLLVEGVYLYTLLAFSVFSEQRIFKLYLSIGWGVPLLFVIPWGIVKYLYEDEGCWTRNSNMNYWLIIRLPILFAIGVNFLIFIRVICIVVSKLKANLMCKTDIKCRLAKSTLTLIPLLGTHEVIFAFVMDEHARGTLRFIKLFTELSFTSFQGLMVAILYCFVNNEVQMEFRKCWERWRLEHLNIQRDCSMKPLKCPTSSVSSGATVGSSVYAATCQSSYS
Test: GLP-1R agonist activity, cAMP in transfected HEK293 cells
Format: cell-based
Experimental: HEK293 cells were co-transfected with cDNA encoding GLP-1R or GIPR. In a test for determining the compound, the cells were inoculated in a 96-well plate 2 h in advance, the polypeptide compound was dissolved with DMSO, and diluted to different multiples with a culture medium containing 0.1% bovine serum albumin and added to the co-transfected cells. After the cells were incubated for 20 min, fluorescence values were determined through microplate reader of an ELISA kit of the Cisbo Company, a standard curve was established to convert the fluorescence values into corresponding cAMP values, and the EC50 value of the compound was calculated through nonlinear regression of Graphpad Prism 5.0 software.

CC[C@H](C)[C@H](NC(=O)[C@H](CC(C)C)NC(=O)[C@H](Cc1c[nH]c2ccccc12)NC(=O)[C@H](CCC(N)=O)NC(=O)[C@@H](NC(=O)[C@H](Cc1ccccc1)NC(=O)[C@H](C)NC(=O)[C@H](CCCCNC(=O)COCCOCCNC(=O)COCCOCCNC(=O)CC[C@H](NC(=O)CCCCCCCCCCCCCCCCC(=O)O)C(=O)O)NC(=O)[C@H](CCC(N)=O)NC(=O)[C@H](C)NC(=O)[C@@H](NC(=O)[C@H](CCCCN)NC(=O)[C@H](CC(=O)O)NC(=O)[C@H](CC(C)C)NC(=O)C1(NC(=O)[C@@H](NC(=O)[C@H](CO)NC(=O)[C@H](Cc2ccc(O)cc2)NC(=O)[C@H](CC(=O)O)NC(=O)[C@H](CO)NC(=O)[C@@H](NC(=O)[C@H](Cc2ccccc2)NC(=O)[C@@H](NC(=O)CNC(=O)[C@H](CCC(=O)O)NC(=O)C2(NC(=O)[C@@H](N)Cc3ccc(O)cc3)CCC2)[C@@H](C)O)[C@@H](C)O)[C@@H](C)CC)CCC1)[C@@H](C)CC)C(C)C)C(=O)N[C@@H](C)C(=O)NCC(=O)NCC(=O)N1CCC[C@H]1C(=O)N[C@@H](CO)C(=O)N[C@@H](CO)C(=O)NCC(=O)N[C@@H](C)C(=O)N1CCC[C@H]1C(=O)N1CCC[C@H]1C(=O)N1CCC[C@H]1C(=O)N[C@@H](CO)C(N)=O [ID NO: 2]
pEC50: 11.21

Source: US20220251163A1 (Sinopep-Allsino Biopharmaceutical Co., Ltd., priority 2019, published 2022)
